Source: paper PMC4710522, “A Novel Triazolopyridine-Based Spleen Tyrosine Kinase Inhibitor That Arrests Joint Inflammation” (PLoS ONE, 2016)
Where “and” joins values, the source holds several entries; their conditions need not be identical. Equal entries are not always repeated. Where two headings read alike, the source gives them in different places.

Experiments:
AMPK_r = assay: SelectScreen kinase assay; format: biochemical, rat; details: 3 µM, KM ATP
Protocol: (§1) Syk kinase mode of inhibition studies, including parameters described in Fig 1, were conducted on the LC3000 platform by Caliper Life Sciences (Hopkinton, MA) according to standard protocols developed by the supplier. […] Non-kinase enzyme assays and GPCR, ion channel, and transporter binding assays were run by CEREP (France). Non-GLP manual patch clamp hERG assays were run by ChanTest (Cleveland, Ohio). Vivid® Assay kits (Life Technologies) were used to measure the cytochrome P450 inhibition of the compound against CYP3A, CYP2C9, CYP2C19, CYP2D6, and CYP1A2, as described.
Kinase activity was measured using either the Z’-Lyte® or the Adapta® protocols as part of the SelectScreen™ profiling service offered at Life Technologies (Grand Island, NY). For the single point measurements (Part A), CC-509 was kept constant at 3 µM while ATP concentrations [ATP] used were at the KM for ATP (KM ATP) for that specific enyzme, at 10 or 100 µM ATP (10 ATP or 100 ATP, respectively), as indicated. Values expressed as percent control (% control) relative to DMSO-only wells (uninhibited, 100%).
(§2) Kinase activity was measured using either the Z’-Lyte® or the Adapta® protocols as part of the SelectScreen™ profiling service offered at Life Technologies (Grand Island, NY). […] Values expressed as percent control (% control) relative to DMSO-only wells (uninhibited, 100%).

CK2-alpha2_h = biological target: T1, CK2-alpha2_h (Homo sapiens, UniProt P19784); assay: SelectScreen kinase assay; format: biochemical; details: KM ATP, read-out: % control
T1 construct: purchased Life Technologies (Invitrogen) SelectScreen, Z'-LYTE / Adapta

Flt4_h = Flt4_h (Homo sapiens, UniProt P35916); assay: SelectScreen kinase assay; format: biochemical
Chain of Flt4_h (P35916 25-1363): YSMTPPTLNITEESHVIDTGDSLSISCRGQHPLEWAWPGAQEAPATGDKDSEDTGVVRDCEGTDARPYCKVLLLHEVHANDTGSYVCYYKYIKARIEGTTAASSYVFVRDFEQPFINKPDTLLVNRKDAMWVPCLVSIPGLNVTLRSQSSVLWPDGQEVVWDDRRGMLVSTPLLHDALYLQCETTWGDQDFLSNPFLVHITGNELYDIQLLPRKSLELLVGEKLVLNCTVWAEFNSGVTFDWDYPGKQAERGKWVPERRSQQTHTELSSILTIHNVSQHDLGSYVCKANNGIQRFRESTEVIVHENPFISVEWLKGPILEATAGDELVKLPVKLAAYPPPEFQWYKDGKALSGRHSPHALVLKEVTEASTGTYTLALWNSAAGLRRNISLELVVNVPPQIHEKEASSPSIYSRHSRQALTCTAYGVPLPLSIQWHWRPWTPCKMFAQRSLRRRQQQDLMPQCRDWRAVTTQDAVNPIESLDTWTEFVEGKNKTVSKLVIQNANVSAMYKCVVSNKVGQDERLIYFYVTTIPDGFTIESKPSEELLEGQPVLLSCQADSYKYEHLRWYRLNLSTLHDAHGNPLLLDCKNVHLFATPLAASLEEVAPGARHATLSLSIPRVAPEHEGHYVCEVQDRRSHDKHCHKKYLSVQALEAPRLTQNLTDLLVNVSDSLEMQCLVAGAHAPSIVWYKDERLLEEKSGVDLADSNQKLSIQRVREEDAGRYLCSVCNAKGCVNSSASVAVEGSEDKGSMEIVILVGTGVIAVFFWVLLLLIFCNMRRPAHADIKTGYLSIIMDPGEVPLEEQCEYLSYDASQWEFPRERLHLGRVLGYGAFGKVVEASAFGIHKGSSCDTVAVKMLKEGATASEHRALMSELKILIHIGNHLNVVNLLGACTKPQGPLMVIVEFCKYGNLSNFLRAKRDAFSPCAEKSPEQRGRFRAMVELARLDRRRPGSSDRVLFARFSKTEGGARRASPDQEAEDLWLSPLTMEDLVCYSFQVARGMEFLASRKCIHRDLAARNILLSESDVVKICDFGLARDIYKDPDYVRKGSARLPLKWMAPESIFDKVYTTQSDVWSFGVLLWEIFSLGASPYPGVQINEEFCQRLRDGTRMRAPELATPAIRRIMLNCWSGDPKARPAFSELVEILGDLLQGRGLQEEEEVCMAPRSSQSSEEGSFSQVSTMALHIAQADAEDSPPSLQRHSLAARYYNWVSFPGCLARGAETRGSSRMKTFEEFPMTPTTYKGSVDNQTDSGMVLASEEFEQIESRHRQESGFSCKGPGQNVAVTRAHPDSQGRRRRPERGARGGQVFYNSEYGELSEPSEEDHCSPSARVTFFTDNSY

LRRK2 G2019S_h = biological target: T2, LRRK2 G2019S_h (Homo sapiens, UniProt Q5S007, G2019S); assay: SelectScreen kinase assay; format: biochemical; details: KM ATP, read-out: % control
T2 construct: purchased Life Technologies (Invitrogen) SelectScreen, Z'-LYTE / Adapta

Ret_V804L_h = biological target: T3, Ret_V804L_h (Homo sapiens, UniProt P07949, V804L); assay: SelectScreen kinase assay; format: biochemical; details: KM ATP, read-out: % control
T3 construct: purchased Life Technologies (Invitrogen) SelectScreen, Z'-LYTE / Adapta
T3 sequence (P07949 29-1114 V804L): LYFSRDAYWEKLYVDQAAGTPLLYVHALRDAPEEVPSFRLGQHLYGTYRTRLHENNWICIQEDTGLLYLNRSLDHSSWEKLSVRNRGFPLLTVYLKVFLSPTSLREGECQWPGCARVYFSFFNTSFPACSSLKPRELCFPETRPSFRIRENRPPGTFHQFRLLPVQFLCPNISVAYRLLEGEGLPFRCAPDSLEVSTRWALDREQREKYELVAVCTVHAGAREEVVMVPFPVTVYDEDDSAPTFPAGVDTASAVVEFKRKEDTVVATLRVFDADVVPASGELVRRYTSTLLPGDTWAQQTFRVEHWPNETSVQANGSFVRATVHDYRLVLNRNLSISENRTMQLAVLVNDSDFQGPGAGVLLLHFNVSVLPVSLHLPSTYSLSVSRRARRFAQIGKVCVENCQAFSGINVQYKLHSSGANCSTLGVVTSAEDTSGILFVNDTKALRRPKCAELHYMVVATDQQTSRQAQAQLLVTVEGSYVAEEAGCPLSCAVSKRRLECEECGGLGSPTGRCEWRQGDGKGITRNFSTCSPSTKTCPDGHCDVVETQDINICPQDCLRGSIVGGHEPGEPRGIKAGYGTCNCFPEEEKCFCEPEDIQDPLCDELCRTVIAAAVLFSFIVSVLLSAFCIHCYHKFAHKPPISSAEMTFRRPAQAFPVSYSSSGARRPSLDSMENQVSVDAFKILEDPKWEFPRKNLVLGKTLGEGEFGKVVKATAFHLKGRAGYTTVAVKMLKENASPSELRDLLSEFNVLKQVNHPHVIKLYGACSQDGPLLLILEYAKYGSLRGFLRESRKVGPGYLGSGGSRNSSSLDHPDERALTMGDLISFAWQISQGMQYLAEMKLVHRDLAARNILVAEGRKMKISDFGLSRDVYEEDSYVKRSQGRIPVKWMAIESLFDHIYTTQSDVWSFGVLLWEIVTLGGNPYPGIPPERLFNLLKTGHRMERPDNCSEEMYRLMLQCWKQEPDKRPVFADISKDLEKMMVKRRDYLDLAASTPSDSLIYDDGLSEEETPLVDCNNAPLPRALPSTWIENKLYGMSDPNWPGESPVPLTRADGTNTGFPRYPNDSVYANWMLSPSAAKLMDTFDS

Aurora A = biological target: T4, Aurora A (Homo sapiens, UniProt O14965); assay: Aurora A IMAP TR-FRET assay; format: biochemical; details: in-house, mean ± SD
T4 construct: purchased Millipore 14-511

[1] = biological target: T5, human ether-à-go-go-related Gene (hERG) channel (Homo sapiens, UniProt Q12809); assay: non-GLP manual patch clamp hERG assay (ChanTest); format: cell-based; details: data not shown
T5 construct: ChanTest (contract assay)
T5 sequence (Q12809 whole entry): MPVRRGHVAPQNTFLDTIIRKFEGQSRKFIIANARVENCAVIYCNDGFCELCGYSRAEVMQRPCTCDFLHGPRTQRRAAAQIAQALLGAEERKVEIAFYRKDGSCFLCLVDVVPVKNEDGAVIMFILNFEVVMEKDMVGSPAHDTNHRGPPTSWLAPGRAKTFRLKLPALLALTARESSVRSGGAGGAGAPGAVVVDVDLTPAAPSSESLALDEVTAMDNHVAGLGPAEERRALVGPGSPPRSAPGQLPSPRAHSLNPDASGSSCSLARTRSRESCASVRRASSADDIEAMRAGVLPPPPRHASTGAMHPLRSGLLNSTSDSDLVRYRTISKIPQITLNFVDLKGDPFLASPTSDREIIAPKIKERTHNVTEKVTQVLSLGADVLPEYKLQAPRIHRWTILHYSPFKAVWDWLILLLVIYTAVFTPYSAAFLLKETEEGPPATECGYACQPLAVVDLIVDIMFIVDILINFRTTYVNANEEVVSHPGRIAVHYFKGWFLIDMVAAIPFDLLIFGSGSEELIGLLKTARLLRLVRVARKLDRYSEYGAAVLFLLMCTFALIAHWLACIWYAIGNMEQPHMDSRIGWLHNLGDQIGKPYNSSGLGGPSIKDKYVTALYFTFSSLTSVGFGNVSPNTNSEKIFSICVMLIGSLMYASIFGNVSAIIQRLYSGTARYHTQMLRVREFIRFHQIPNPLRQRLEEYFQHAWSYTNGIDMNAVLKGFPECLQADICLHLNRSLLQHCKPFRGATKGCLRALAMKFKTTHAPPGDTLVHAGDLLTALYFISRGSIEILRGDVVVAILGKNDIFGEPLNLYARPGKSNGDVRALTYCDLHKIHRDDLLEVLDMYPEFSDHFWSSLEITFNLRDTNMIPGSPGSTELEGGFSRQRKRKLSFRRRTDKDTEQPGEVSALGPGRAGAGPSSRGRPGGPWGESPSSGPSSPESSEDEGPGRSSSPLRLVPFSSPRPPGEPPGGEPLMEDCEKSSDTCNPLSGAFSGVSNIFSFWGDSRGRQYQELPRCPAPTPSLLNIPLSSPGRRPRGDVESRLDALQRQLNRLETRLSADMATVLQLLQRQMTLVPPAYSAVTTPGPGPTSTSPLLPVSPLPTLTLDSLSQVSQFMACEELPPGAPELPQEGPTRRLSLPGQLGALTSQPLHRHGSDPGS
Protocol: as §1

human KDR in Hek cells = biological target: T6, human KDR in Hek cells (Homo sapiens, UniProt P35968); assay: KDR cellular selectivity assay (VEGF-induced KDR autophosphorylation); format: cell-based
T6 construct: host or cells: HEK293
T6 sequence (P35968 20-1356): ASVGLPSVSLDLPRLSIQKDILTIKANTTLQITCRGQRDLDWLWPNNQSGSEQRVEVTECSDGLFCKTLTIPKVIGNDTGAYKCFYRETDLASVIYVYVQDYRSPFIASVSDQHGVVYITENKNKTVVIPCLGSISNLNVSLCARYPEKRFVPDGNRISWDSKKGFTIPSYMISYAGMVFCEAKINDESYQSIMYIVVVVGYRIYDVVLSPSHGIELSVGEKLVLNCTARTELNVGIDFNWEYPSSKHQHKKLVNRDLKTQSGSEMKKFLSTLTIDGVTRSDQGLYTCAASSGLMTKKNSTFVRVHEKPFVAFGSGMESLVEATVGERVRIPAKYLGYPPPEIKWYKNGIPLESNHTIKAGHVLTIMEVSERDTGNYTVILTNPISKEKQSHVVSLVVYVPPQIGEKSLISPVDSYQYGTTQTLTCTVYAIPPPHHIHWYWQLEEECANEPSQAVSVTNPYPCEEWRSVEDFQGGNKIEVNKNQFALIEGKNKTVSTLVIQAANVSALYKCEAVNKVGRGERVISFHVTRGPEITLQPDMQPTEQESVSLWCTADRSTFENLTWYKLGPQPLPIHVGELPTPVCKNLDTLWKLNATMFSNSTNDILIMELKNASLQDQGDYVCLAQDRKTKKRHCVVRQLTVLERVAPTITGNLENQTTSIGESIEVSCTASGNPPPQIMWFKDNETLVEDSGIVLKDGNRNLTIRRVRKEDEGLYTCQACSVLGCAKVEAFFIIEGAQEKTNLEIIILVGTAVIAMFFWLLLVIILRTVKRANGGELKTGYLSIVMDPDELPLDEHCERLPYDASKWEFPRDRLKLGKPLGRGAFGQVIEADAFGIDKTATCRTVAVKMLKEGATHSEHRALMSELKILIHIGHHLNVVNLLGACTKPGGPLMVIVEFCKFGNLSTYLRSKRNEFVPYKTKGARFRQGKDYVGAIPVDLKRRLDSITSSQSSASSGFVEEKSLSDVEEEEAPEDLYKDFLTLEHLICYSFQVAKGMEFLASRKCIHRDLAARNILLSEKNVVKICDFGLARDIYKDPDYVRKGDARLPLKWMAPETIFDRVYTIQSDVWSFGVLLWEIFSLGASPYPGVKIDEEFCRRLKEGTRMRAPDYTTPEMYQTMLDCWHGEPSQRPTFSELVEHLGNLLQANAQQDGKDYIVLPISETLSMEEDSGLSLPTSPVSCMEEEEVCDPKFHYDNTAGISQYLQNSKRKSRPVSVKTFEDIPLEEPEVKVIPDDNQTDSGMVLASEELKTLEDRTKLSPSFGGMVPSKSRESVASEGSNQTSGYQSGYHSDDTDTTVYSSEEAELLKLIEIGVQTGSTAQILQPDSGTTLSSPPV
Protocol: HEK KDR cells were plated on 96-well flat bottom plates for 16 hours in a tissue culture incubator. […] Briefly, cells on plates were lysed with Mesoscale lysis buffer (containing phosphatase/ proteinase inhibitors and 0.05% SDS), frozen at -80°C for 2 hours, and then placed on an orbital shaker at 4°C for 16 hours. Cell lysate was transferred to a blocked phopsho-KDR plate, incubated at room temperature for 2 hours, washed twice, and blotted dry. The detection antibody was added to all wells on the plate, incubated for 2 hours at room temperature on an orbital shaker, and plate was washed three times. Diluted Mesoscale detection solution was added to each well and the plates were read on the Sector Imager instrument (Mesoscale, Gaithersberg, MD).
For the neutrophil, macrophage, KDR, and JAK1/3 assays, raw values were exported into ActivityBase to calculate percent inhibition. All IC50 calculations were generated using XLfit (IDBS, Guildford, UK) algorithm 205 within Excel.

[2] = plasma compound exposure in rat CIA study; format: in vivo; details: for AUC(0-t): female, Lewis, rat, plasma, po, read-out: AUC0-24h in plasma after the last day of dosing
Protocol: Female Lewis rats (150 – 170g; Charles River Laboratories) were house standard shoebox cages, fed Harlan-Tekald diet and water ad libitum and maintained on a 12h light/dark cycle. For induction of arthritis rats were anesthetized with isofluorane and their entire dorsal area shaved. Rats were injected (intradermal) with 100 μl of equal volumes of collagen (Chrondrex, Redmond, WA) and IFA (Sigma Chemicals, St. Louis, MO) emulsion in 10 sites across the dorsal region. At disease onset 11 days following immunization animals were randomized into groups based on their ankle measurements and test article administration was initiated. Rats were dosed orally with vehicle (20% Captisol®), Indomethacin (Sigma Chemicals, St. Louis, MO, 2mg/kg) or CC-509 (15, 25mg/kg QD or 15mg/kg BID) in a dose volume of 5ml/kg. […] On the last day of the study animals were split into 2 cohorts and bleed twice via tail bleed under isofluorane anesthesia and a third terminal bleed following CO2 asphyxiation to obtain a time course of plasma compound exposure at 30minutes, 1, 2, 4, 8 and 24h after the last dose of CC-509.

[3] = preclinical toxicology studies, myelosuppression in male rats; format: in vivo, rat
DNAPK_h = biological target: T7, DNAPK_h (Homo sapiens, UniProt P78527); assay: SelectScreen kinase assay; format: biochemical; details: 3 µM, KM ATP
T7 construct: purchased Life Technologies (Invitrogen) SelectScreen, Z'-LYTE / Adapta
Protocol: as §1, §2

[4] = rat CIA, cited from earlier work
[5] = male rats; cited from earlier work

SMILES | % control (AMPK_r) | remaining activity at 3 µM (CK2-alpha2_h) | remaining activity at 3 µM (Flt4_h; 3 µM, KM ATP, read-out: % control) | IC50 (Flt4_h; 10-point dose-response, commercial vendor) | remaining activity at 3 µM (LRRK2 G2019S_h) | remaining activity at 3 µM (Ret_V804L_h) | IC50 (Aurora A) | inhibition of hERG channel activity [1] | IC50 (human KDR in Hek cells; Hek cells) | fold difference in potency between R406 and CC-509, KDR cellular assay (human KDR in Hek cells; R406 more potent) | AUC(0-t) ([2]; 15 mg/kg, 15 mg/kg b.i.d.) | AUC(0-t) ([2]; 15 mg/kg, 15 mg/kg q.d.) | AUC(0-t) ([2]; 25 mg/kg, 25 mg/kg q.d.) | minimal efficacious exposure ([2]; rat CIA) | exposure producing myelosuppression [3] | fold higher exposure producing myelosuppression than R406 [3] | % control (DNAPK_h) | exposure following a single dose ([4]; 10 mg/kg b.i.d.) | exposure following a single dose ([4]; 30 mg/kg b.i.d.) | exposure producing myelosuppression [5]
c1cc(CC2CCOCC2)n2nc(Nc3ccc4c(NC5CCOCC5)n[nH]c4c3)nc2c1 [CC-509, [3-(2H-3,4,5,6-tetrahydropyran-4-ylamino)(1H-indazol-6-yl)][5-(2H-3,4,5,6-tetrahydropyran-4-ylmethyl)(2H-1,2,4-triazolo[1,5-a]pyridin-2-yl)]amine] | 84% | 97% | 1% | 50 nM and 53.9 nM | 4% | 22% | 220 ± 50 nM | did not inhibit | 7.43 ± 3.36 µM | 10 fold | 60 µM·h | 22 µM·h | 45 µM·h | 45 µM·h | 630 µM·h | approximately 5 fold | – | – | – | –
COc1cc(Nc2ncc(F)c(Nc3ccc4c(n3)NC(=O)C(C)(C)O4)n2)cc(OC)c1OC [R406, reference compound] | – | – | – | – | – | – | – | – | – | – | – | – | – | – | – | – | 87% | 15 µM·h | 38 µM·h | 120 µM·h
